Patent US20060252786A1, “Nicotinic-opioid synergy for analgesia” (priority 2004, published 2006)
“And” between values parts separate entries of the source, which are not always exact repeats. Equal entries are not always repeated. Where two headings read alike, the source gives them in different places.

Experiments:
postoperative pain = system: postoperative pain
Method: (§1) This study was a randomized, double blind clinical trial with a 24 hour data collection period. The study was approved by the institutional review board at Columbia University. Written informed consent was obtained from all patients. Women between the ages of 18 and 50, scheduled to have uterine surgery (either myomectomy or hysterectomy) through a low transverse incision were eligible to be included. We chose to only study women in this preliminary study because animal studies have identified gender differences in nicotine's analgesic action 10-12. Patients were excluded who had smoked during the past year, had preexisting pain syndromes, hypertension, or any history of cardiovascular disease. All patients were American Society of Anesthesiologists class 1 or 2. The patients were instructed before surgery that they would be asked about their pain with a numerical analog score where 0 is no pain and 10 is the worst pain that they could imagine. […] No other medications were given in the preoperative period.
(§2) All patients were given a standardized anesthetic as follows: anesthetic premedication was administered in the operating room consisting of 1-2 μg/kg fentanyl and 1 mg vecuronium. Anesthesia was induced with propofol 2 mg/kg and succinylcholine 2 mg/kg. After intubation of the trachea, anesthesia was maintained with a fentanyl infusion of 1-2 μg/kg/hr and isoflurane titrated to adequate anesthetic depth by the clinical anesthesiologist, who was not aware of the treatment group. Muscle relaxation was effected with vecuronium. All patients were given dolasetron 12.5 mg prophylactically to prevent nausea and vomiting. At the completion of surgery, the anesthesiologist was given an opaque sealed container with either a nicotine nasal spray (3 mg—Nicotrol NS, Pharmacia, Peapack, N.J.) or saline nasal spray prepared according to a random number table by the research pharmacy. The study drug was administered by the anesthesiologist as 3 jets in each nostril (3 mg nicotine or an equal volume of saline) at a 45 degree angle after the muscle relaxant was reversed and while the surgeon was closing the fascia.
Five minutes after extubation and every 5 minutes thereafter for 60 minutes, the patient was asked to report the pain that they were experiencing with a numerical analog score from 0-10. A pain report was also obtained at 2 and 24 hours. A PCA pump was inserted into the patient's intravenous circuit prior to emergence from anesthesia. […] No other postoperative analgesic medications were used.
The data were analyzed per protocol. Two subjects from whom informed consent was obtained were not studied for postoperative pain. In one case because of a protocol violation in the standard anesthetic the patient was not randomized and in the second case, the anesthesiologist was not certain of study drug dose. The decision to exclude these patients was made prior to the postoperative period and this no data was obtained.
(§3) In previous studies using analog pain scores the standard deviation was approximately 2 numerical analog pain units. We calculated that in order to detect a difference of 2 numerical analog pain units, with α=0.05 and 80% power we would need to enroll 17 patients per group (StatMate, GraphPad software, San Diego, Calif., USA). 10 patients were enrolled per group as a pilot study requested by our IRB. […] The change in pain scores over time was determined with a One Way Analysis of Variance for repeated measures, where time was considered a continuous variable (Analyse-it for Microsoft Excel; Analyse-it Software, ltd., Leeds, England). All values are reported as mean (SD).

[1] = Method: as §1
as §2, with “fascia. […]” for “fascia.”
In previous studies using analog pain scores the standard deviation was approximately 2 numerical analog pain units. We calculated that in order to detect a difference of 2 numerical analog pain units, with α=0.05 and 80% power we would need to enroll 17 patients per group (StatMate, GraphPad software, San Diego, Calif., USA). […] The change in pain scores over time was determined with a One Way Analysis of Variance for repeated measures, where time was considered a continuous variable (Analyse-it for Microsoft Excel; Analyse-it Software, ltd., Leeds, England). […]

[2] = remark: listed apart in the source
Method: as §2
Blood pressure was measured with a non-invasive automatic oscillometric blood pressure cuff every 5 minutes for the first hour (Agilent Technologies, Andover, Mass.). Heart rate was monitored continuously with a pulse oximeter and electrocardiographic leads and recorded every five minutes for the first hour (Agilent Technologies, Andover, Mass.). All testing was conducted by the same investigator (D.D.). Both the investigator recording data and the nurse administering medication were blinded to treatment group.
as §3

post-incisional pain = system: post-incisional pain
Method: Each of these studies will be nearly identical to the original study (FIG. 5). However, the studies will look at the following dosing paradigms: • 1. Animals will be randomized to receive nicotine 0.25 to 1.5 mg/kg, or placebo 2 hours prior to the hind-paw surgery, or 2 hours after the hind paw surgery (reproducing the original study). […] The doses will be determined in a dose-finding portion of the interaction study. The interaction surface will be modeled and tested to identify any benefit from preoperative administration of nicotine. • 2. […] The study will help to document whether there is any benefit to maintaining nicotine with a constant infusion vs. a simple bolus injection. Expected Results and Potential Issues

[3] = nicotine nasal spray 3 mg, PCA morphine
[4] = system: post-incisional pain, injured hind paw; conditions: for Meas (von Frey response): IP, individual measurements
TNF-α, IL2 and IL6 = conditions: anticipated; nicotine 0-5 mg/kg after surgical incision
[5] = 3 mg intranasally, non-smoking volunteers; cited from earlier work
[6] = cited from earlier work
[7] = system: α4β2 type nicotinic receptors; conditions: binds more tightly; cited from earlier work
[8] = system: tail flick antinociception; conditions: cited from earlier work
[9] = system: antinociceptive action of nicotine; conditions: in vivo; cited from earlier work
[10] = 3 mg intranasally (Guthrie, 1999)

## CN1CCCC1c1cccnc1 (stereo not drawn) [nicotine]
Postoperative pain; 20 non-smoking women after gynecological surgery, reduced from 8 (placebo)
  peak pain scores (VAS, out of 10): 5
Postoperative pain; after surgery, nicotine nasal spray 3 mg, PCA morphine
  time at which peak pain score occurred: 35 min
Postoperative pain; nicotine nasal spray 3 mg at end of surgery, PCA morphine available, first hour, mean (SD)
  peak pain score (numerical analog score 0-10): 5.3 (1.6) units
Postoperative pain; nicotine nasal spray 3 mg single dose, PCA morphine, mean (SD), P<0.01 vs placebo
  pain score twenty-four hours after emergence: 1.5 (0.5)
Postoperative pain; nicotine nasal spray just prior to emergence, P<0.001
  pain scores during the first hour compared with placebo: lower pain scores at all times during the first hour
Postoperative pain; preliminary data set, placebo 6.5
  average VAS score in the first hour: approximately 4.5
Postoperative pain; single 3 mg intranasal dose, last assessment in the study
  duration of analgesic effect: at least 24 hours
[1]; nicotine nasal spray 3 mg, difference vs placebo not statistically significant
  morphine used during the first 24 hours after surgery: 41 ± 9 mg
[1]; nicotine nasal spray 3 mg, mean (SD), P<0.05 vs control
  cumulative morphine utilization during the first hour: 6 (5) mg
[1]; nicotine nasal spray 3 mg, p<0.01
  overall morphine usage compared to the placebo group: about half
[1]; nicotine vs placebo
  reduction in morphine requirement in the first hour: 50%
[2]; first hour after surgery
  systolic blood pressure compared with placebo: lower systolic blood pressure
[2]; first postoperative hour
  diastolic blood pressure compared with placebo: no difference
  heart rate compared with placebo: no difference
[2]; first postoperative hour, mean (SD), placebo 122 (3), P<0.001
  systolic blood pressure: 105 (3)
[2]; pilot study
  hemodynamic consequences of a single dose of nicotine: No hemodynamic consequences have been identified
post-incisional pain; 2 hours prior to hind-paw surgery
  benefit from pre-operative administration (expected): no benefit
post-incisional pain; micro-osmotic pump vs bolus injection
  analgesic response with constant infusion (expected): more stable level of analgesic response
[3]
  incidence of nausea and vomiting compared with placebo: did not differ
[4]; Morphine 0, Nicotine 0.5 (mg)
  Meas (von Frey response): 0 gms (4×) and 0.25 gms
[4]; Morphine 0, Nicotine 1 (mg)
  Meas (von Frey response): 1.95 gms (2×) and 2.7 gms (3×)
[4]; Morphine 0, Nicotine 1.5 (mg)
  Meas (von Frey response): 2.7 gms (2×) and 4.9 gms (2×) and 4.65 gms
[4]; Morphine 0, Nicotine 2 (mg)
  Meas (von Frey response): 2.7 gms (3×) and 4.9 gms (2×)
[4]; Morphine 0, Nicotine 3 (mg), upper threshold 15
  Meas (von Frey response): 15 gms
[4]; Morphine 0, Nicotine 5 (mg), upper threshold 15
  Meas (von Frey response): 15 gms
[4]; single IP injection
  ED20 for primary hyperalgesia: 1.5 mg/kg
Tolerance to morphine; morphine infusion 2 mg/kg/hr, data not shown
  peak withdrawal latency compared with saline group: higher
Tolerance to morphine; nicotine 1.5 mg/kg, morphine continuous infusion 18 hours, P<0.001
  tolerance to morphine after pretreatment with a single dose of nicotine: Tolerance is reduced
TNF-α, IL2 and IL6
  levels of TNF-α, IL2 and IL6 compared with placebo group (expected): lower levels
[5]
  average increase in systolic blood pressure: 7 mM of mercury
  change in diastolic blood pressure: no change
  change in heart rate: no change
[6]; [10]
  arterial peak concentration: 100 µM
  steady state venous concentration: 30 µM
[6]; intranasal
  time to peak effect: five
  time until effect is dissipated: about one

## CNCC/C=C/c1cccnc1 [metanicotine]
[7]
  binding selectivity for α4β2 over α3β4, α7 or muscle type nicotinic receptors: over 10,000 times
[8]; dose of 10 mg/kg
  antinociception in the tail flick assay: midrange antinociception

## CN1CC[C@]23c4c5ccc(O)c4O[C@H]2[C@@H](O)C=C[C@H]3[C@H]1C5 [morphine]
[4]; 129J strain relatively insensitive to morphine
  antinociceptive efficacy alone: relatively ineffective alone
[4]; Morphine 0.1 mg/kg, Nicotine 0
  Meas (von Frey response): 1.8 gms (2×) and 0.75 gms (2×) and 2.95 gms
[4]; Morphine 1 mg/kg, Nicotine 0
  Meas (von Frey response): 1.95 gms (3×) and 1.7 gms and 0.9 gms and 5.2 gms (2×) and 5.95 gms and 0.75 gms and 2.95 gms
[4]; Morphine 5 mg/kg, Nicotine 0
  Meas (von Frey response): 0.9 gms (3×) and 1.1 gms (2×) and 7.9 gms (3×) and 7.65 gms (2×)
[4]; Morphine 10 mg/kg, Nicotine 0
  Meas (von Frey response): 1.1 gms (3×) and 0.45 gms and 2.15 gms
[4]; Morphine 13 mg/kg, Nicotine 0
  Meas (von Frey response): 4.65 gms (2×) and 7.65 gms (3×)
[4]; Morphine 20 mg/kg, Nicotine 0
  Meas (von Frey response): 7.9 gms and 4.9 gms (3×) and 8.1 gms
Tolerance to morphine; morphine 2 mg/kg/hr subcutaneous pump, nicotine 1 mg/kg IP or saline, heat withdrawal latency, 18 hour period
  reduction in peak effect (plateau of analgesic action): 64±14%

## C[N+](C)(C)CCCCCC[N+](C)(C)C [hexamethonium]
[9]
  effect on the antinociceptive action of nicotine: no effect

## CCN1C[C@]2(COC(=O)c3ccccc3N3C(=O)C[C@H](C)C3=O)CC[C@H](OC)[C@@]34[C@@H]5C[C@H]6[C@H](OC)[C@@H]5[C@](O)(C[C@@H]6OC)[C@](O)([C@@H](OC)[C@H]23)[C@@H]14 [MLA]
[8]; tail flick assay
  effect on the antinociceptive response to nicotine: no effect
